Test results taken from patent US20020106347A1, “Cytokines and their use in treatment and/or prophylaxis of breast cancer” (priority 1995, published 2002).
“Also recorded” adds a separate entry of the source.

Key:
Assay type in all cases: cell-based, human
MCF-7 cells [1] = assay: Cell cycle analysis by flow cytometry (DNA content); conditions: MCF-7, serum-free medium
Protocol: FIG. 9 is a graphical representation showing the effect of OSM on cell cycle. MCF-7 cells treated with OSM while growing in serum-free medium were harvested by treatment with trypsin and stained for DNA content analysis by flow cytometry. Cell cycle distributions were calculated by computer fitting of the resultant histograms. […] FIG. 10(b) represents data from 2 experiments (performed in triplicate) where the number of cells in S phase are represented as a percentage of the corresponding untreated control value.
Cell cycle distributions were calculated by computer fitting of the resultant histograms. Results represent the combined data from 3 experiments (performed in triplicate) where the number of cells in S phase are represented as a percentage of the corresponding untreated control value.
Cell cycle analysis was performed in serum-free medium (Sigma). Analysis was performed 2-4 days after cells were washed and re-cultured in serum-free medium. Growth factors were added to the medium as indicated. At the times shown thereafter, cells were harvested with 0.05% (w/v) trpsin-0.02% (w/v) EDTA. The cells were resuspended in serum-free tissue culture medium and after cell counting using a hemacytometer, stained for later DNA analysis by the addition of 0.25% prothidium iodide in the presence of 0.2% (v/v) Triton X-100. DNA histograms were obtained by using a FACScan flow cytometer (Becton Dickinson Immunocytochemistry Systems) and the cell cycle phase distribution was estimated by using the manufacturer's DNA analysis software (Cellfit). Each histogram contained 10,000 events.

[2] = tested on: primary normal breast cells; assay: Growth of primary normal breast cells in suspension culture; conditions: serum free breast media, 7 days
Protocol: FIG. 6 is a graphical representation of primary normal breast cells in suspension culture. 10^4 primary normal breast cells were cultured in 500 μl serum free breast media containing the indicated concentration of each of the growth factors (OSM and […]). After 7 days culture viable cells were counted using a hemacytometer. Cell numbers reported here are the results of 1 experiment, performed in triplicate.
Sterile normal breast tissue was obtained from reduction mammoplasty surgery. […] After 18 hours the mixture was centrifuged at 600 RCF/5 min, the supernatant discarded and the remaining cell pellet washed twice in RPMI-1640 supplemented with 10% (v/v) (v/v) BCS. […] Single cells adhered to the culture flasks and from these islands of cells epithelial cells grew. The media was subsequently removed and replaced with serum-free breast media. Partial trypsinisation removed any contaminating fibroblasts and the cells remaining were 95-100% epithelial. Cells were subsequently grown for approximately 30 days in the serum free breast media.

ER in MCF-7 cells = assay: ER expression by antibody staining on chamber slides; conditions: MCF-7, 6 days
Protocol: (§1) MCF-7 cells were grown on chamber slides for 6 days in RPMI/10% (v/v) BCS with the following growth factors, prior to being stained with an antibody specific for ER. […] Cells stained brown indicate ER positivity.
as §1

MCF-7 cells [3] = assay: Northern analysis of mRNA expression after OSM; conditions: OSM 10 ng/ml
Protocol: (§2) FIG. 12 is a photographic representation showing effect of OSM on the expression of Transforming Growth Factor α (TGFα), Epidemal Growth Factor Receptor (EGFR), Prolactin Receptor (PRLR), Estrogen Receptor (ER) and LIF mRNA. Cells growing in the presence of 10% (v/v) BCS were treated with OSM (10 ng/ml) and at the indicated time points duplicate 150 cm^2 flasks were harvested and mRNA extracted for Northern analysis. Results for control cells (C) are also shown. The same filter has been probed successively with a ^32P-labelled cDNA corresponding to each mRNA species. mRNA loading was evaluated by reprobing the filter with a fragment complementary to GAPDH. mRNA species of the following sizes were obtained: TGFα, 4.8 kb; PRLR, 10.5 and 8.6 kb; EGFR, 10.5 and 5.8 kb; ER, 6.5 and 3.8 kb and LIF, approx. 4.8 kb.
Cells havested from duplicate flasks were pooled and poly A+ mRNA extracted by an oligo-dT cellulose procedure (Boehringer Mannheim). Northern analysis was performed using 5 μg RNA per lane. Membranes (Hybond-C extra-Amersham) were hybridised (42° C. overnight) with probes labelled with α-^32P dCTP (bresatec). The membranes were washed at a stringency of 0.2× SSC (30 mM NaCl, 3 mM sodium citrate, pH 7.0)-0.1% (w/v) sodium dodecyl sulfate at 65° C. and exposed to Kodak X-Omat film at −70° C. mRNA loading was estimated by hybridising membranes with a 1.3 kb cDNA complementary to GAPDH.
as §2, with “Cells” for “FIG. 12 is a photographic representation showing effect of OSM on the expression of Transforming Growth Factor α (TGFα), Epidemal Growth Factor Receptor (EGFR), Prolactin Receptor (PRLR), Estrogen Receptor (ER) and LIF mRNA. Cells”

BT-549 = assay: Cell morphology after exposure to OSM; conditions: BT-549 exposed to OSM
Excerpt: (§3) The action of IL-6, LIF, OSM CNTF and IL-11 was examined on 4 breast cancer cell lines grown in monolayer culture. Striking changes in the morphology of cells were observed. FIG. 15 compares morphology of untreated cells with cells exposed to OSM. […] This was associated with the appearance of decreased intercellular adhesion or cellular contraction. These changes were quite marked by day 14.

T-47D cells = assay: Cell morphology after exposure to OSM; conditions: T-47D cultured with OSM
Excerpt: as §3

MDA-MB-231 cells = assay: Cell morphology after exposure to OSM; conditions: MDA-MB-231 exposed to OSM
Protocol: FIG. 15 is a photographic representation showing cell morphology after exposure to OSM. MCF-7 cells from control cultures (Panel A) and appearance of cells after culture for 14 days in OSM (10 ng/ml) (Panel B). MDA-MB-231 cells from control cultures (Panel C) and appearance of cells after culture for 7 days in OSM (Panel D).
as §3

[4] = from 2 hours, maintained for 48 hours

oncostatin M [OSM]
effect on S phase fraction (in words) (MCF-7 cells [1]): marked decrease in the S phase cells; also recorded: decreased | effect on percentage of cells in G1 phase (in words) (MCF-7 cells [1]): concomitant increase in the percentage of cells in G1 phase | number of cells in S phase as percentage of control cells (MCF-7 cells [1]; by 24 hour): 50% | percentage of cells in S phase following treatment (MCF-7 cells [1]; decreases from approximately 15% over a 72 hour time period): ~8% | effect on proliferation (in words) [2]: profoundly inhibited the proliferation | cells staining very weakly for ER (ER in MCF-7 cells): 50% | abundance of TGFα transcript (in words) (MCF-7 cells [3]): equivalent to control cells | level of LIF transcript (in words) (MCF-7 cells [3]): upregulates | elevation of EGFR mRNA abundance (MCF-7 cells [3]; between 4-12 hours): at least 5 fold | level of expression of Estrogen Receptor (ER) mRNA (in words) (MCF-7 cells [3]; [4]): down regulate | level of expression of Prolactin Receptor (PRLR) mRNA (in words) (MCF-7 cells [3]; [4]): down regulate | cell morphology (in words) (BT-549): Transformation to a fibroblastic phenotype | cell morphology (in words) (T-47D cells): more rounded in appearance | cell morphology (in words) (MDA-MB-231 cells): Transformation to a fibroblastic phenotype
